Assay results as given in patent EP2649091B1, “IMMUNE RESTRICTED PEPTIDES WITH INCREASED EFFICACY” (Stichting Het Nederlands Kanker Instituut, priority 2010, dated 2012).
ALG = not defined here; PHG = not defined here

What was measured:
[1] = test system: SVYDFFVWL (TRP-2 180-188) reactive T cells; assay: T cell activation time course assay, IFNγ production (FACS), TRP-2 epitope; conditions: for % CD8+ T cells producing IFN-γ peptide concentrations in picomolar 24H 0.5 / Geometric mean IFN-γ in arbitrary fluorescence units peptide concentrations in picomolar 24H 0.5 / % CD8+ T cells producing IFN-γ peptide concentrations in picomolar 48H 0.5 / Geometric mean IFN-γ in arbitrary fluorescence units peptide concentrations in picomolar 48H 0.5: peptide 0.5 pM; for % CD8+ T cells producing IFN-γ peptide concentrations in picomolar 24H 50 / % CD8+ T cells producing IFN-γ peptide concentrations in picomolar 48H 50 / Geometric mean IFN-γ in arbitrary fluorescence units peptide concentrations in picomolar 24H 50 / Geometric mean IFN-γ in arbitrary fluorescence units peptide concentrations in picomolar 48H 50: peptide 50 pM; for % CD8+ T cells producing IFN-γ peptide concentrations in picomolar 24H 5·10^3 / Geometric mean IFN-γ in arbitrary fluorescence units peptide concentrations in picomolar 24H 5·10^3 / % CD8+ T cells producing IFN-γ peptide concentrations in picomolar 48H 5·10^3 / Geometric mean IFN-γ in arbitrary fluorescence units peptide concentrations in picomolar 48H 5·10^3: peptide 5·10^3 pM
[2] = biological target: HLA-A0201 (Homo sapiens, UniProt P04439, D140Y/D185E/D98H/E176V/E277Q/G131W/G231S/I119V/I121R/I166T/I218V/L300P/L318F/N151K/N90K/P208A/P217A/Q86G/Q94H/R138H/R169H/T345S); format: binding
[3] = test system: HLA-A2::Mart-1(26-35) reactive T cells stimulated by T2 cells; assay: T cell activation time course assay, IFNγ production (FACS), Mart-1 epitope; format: cell-based; conditions: for % CD8+ T cells producing IFN-γ 0H / Geometric mean IFN-γ in arbitrary fluorescence units 0H: time point 0H (basal); for % CD8+ T cells producing IFN-γ 2H / Geometric mean IFN-γ in arbitrary fluorescence units 2H: time point 2H; for % CD8+ T cells producing IFN-γ 4H / Geometric mean IFN-γ in arbitrary fluorescence units 4H: time point 4H; for % CD8+ T cells producing IFN-γ 24H / Geometric mean IFN-γ in arbitrary fluorescence units 24H: time point 24H; for % CD8+ T cells producing IFN-γ 24H / Geometric mean IFN-γ in arbitrary fluorescence units 24H / % CD8+ T cells producing IFN-γ 48H / Geometric mean IFN-γ in arbitrary fluorescence units 48H: free peptide washed away; for % CD8+ T cells producing IFN-γ 48H / Geometric mean IFN-γ in arbitrary fluorescence units 48H: time point 48H

Row | Substance | % CD8+ T cells producing IFN-γ peptide concentrations in picomolar 24H 0.5 [1] [%] | Geometric mean IFN-γ in arbitrary fluorescence units peptide concentrations in picomolar 24H 0.5 [1] | % CD8+ T cells producing IFN-γ peptide concentrations in picomolar 24H 50 [1] [%] | % CD8+ T cells producing IFN-γ peptide concentrations in picomolar 24H 5·10^3 [1] [%] | Geometric mean IFN-γ in arbitrary fluorescence units peptide concentrations in picomolar 24H 5·10^3 [1] | % CD8+ T cells producing IFN-γ peptide concentrations in picomolar 48H 0.5 [1] [%] | Geometric mean IFN-γ in arbitrary fluorescence units peptide concentrations in picomolar 48H 0.5 [1] | % CD8+ T cells producing IFN-γ peptide concentrations in picomolar 48H 50 [1] [%] | % CD8+ T cells producing IFN-γ peptide concentrations in picomolar 48H 5·10^3 [1] [%] | Geometric mean IFN-γ in arbitrary fluorescence units peptide concentrations in picomolar 48H 5·10^3 [1] | % inhibition at T=4H and T=24H FP 4h [2] [%] | % inhibition at T=4H and T=24H FP 24h [2] [%] | IC50 Ratio [2] | further results
1 | [CSME][2-AOC]YDFFVWL | 1 | 71 arbitrary fluorescence units | 20 | 30 | 264 arbitrary fluorescence units | 0 | 68 arbitrary fluorescence units | 5 | 33 | 224 arbitrary fluorescence units | 88 | 76 |  | % inhibition at T=4H and T=24H FP 4H [2]: 88%; % inhibition at T=4H and T=24H FP 24H [2]: 76%
2 | [PHG][2-AOC]YDFFVW[PRG] | 0 | 95 arbitrary fluorescence units | 1 | 20 | 120 arbitrary fluorescence units | 1 | 79 arbitrary fluorescence units | 0 | 0 | 78 arbitrary fluorescence units | 83 | 78 |  | Geometric mean IFN-γ in arbitrary fluorescence units peptide concentrations in picomolar 24H 50 [1]: 68 arbitrary fluorescence units; Geometric mean IFN-γ in arbitrary fluorescence units peptide concentrations in picomolar 48H 50 [1]: 78 arbitrary fluorescence units
3 | [am-phg]LAGIGILT[PRG] |  |  |  |  |  |  |  |  |  |  |  |  |  | % CD8+ T cells producing IFN-γ 0H ([3]; peptide 0.5 pM): 0%; Geometric mean IFN-γ in arbitrary fluorescence units 0H ([3]; peptide 0.5 pM): 94 arbitrary fluorescence units; % CD8+ T cells producing IFN-γ 2H ([3]; peptide 0.5 pM): 27%; Geometric mean IFN-γ in arbitrary fluorescence units 2H ([3]; peptide 0.5 pM): 214 arbitrary fluorescence units; % CD8+ T cells producing IFN-γ 4H ([3]; peptide 0.5 pM): 29%; Geometric mean IFN-γ in arbitrary fluorescence units 4H ([3]; peptide 0.5 pM): 345 arbitrary fluorescence units; % CD8+ T cells producing IFN-γ 24H ([3]; peptide 0.5 pM): 15%; Geometric mean IFN-γ in arbitrary fluorescence units 24H ([3]; peptide 0.5 pM): 159 arbitrary fluorescence units; % CD8+ T cells producing IFN-γ 48H ([3]; peptide 0.5 pM): 3%; Geometric mean IFN-γ in arbitrary fluorescence units 48H ([3]; peptide 0.5 pM): 103 arbitrary fluorescence units; % CD8+ T cells producing IFN-γ 0H ([3]; peptide 50 pM): 0%; Geometric mean IFN-γ in arbitrary fluorescence units 0H ([3]; peptide 50 pM): 105 arbitrary fluorescence units; % CD8+ T cells producing IFN-γ 2H ([3]; peptide 50 pM): 22%; Geometric mean IFN-γ in arbitrary fluorescence units 2H ([3]; peptide 50 pM): 249 arbitrary fluorescence units; % CD8+ T cells producing IFN-γ 4H ([3]; peptide 50 pM): 31%; Geometric mean IFN-γ in arbitrary fluorescence units 4H ([3]; peptide 50 pM): 480 arbitrary fluorescence units; % CD8+ T cells producing IFN-γ 24H ([3]; peptide 50 pM): 28%; Geometric mean IFN-γ in arbitrary fluorescence units 24H ([3]; peptide 50 pM): 342 arbitrary fluorescence units; % CD8+ T cells producing IFN-γ 48H ([3]; peptide 50 pM): 18%; Geometric mean IFN-γ in arbitrary fluorescence units 48H ([3]; peptide 50 pM): 215 arbitrary fluorescence units
4 | [am-phg][CpALA]YDFFVW[PRG] | 1 | 94 arbitrary fluorescence units | 1 | 14 | 95 arbitrary fluorescence units | 0 | 76 arbitrary fluorescence units | 0 | 4 | 76 arbitrary fluorescence units | 80 | 80 |  | Geometric mean IFN-γ in arbitrary fluorescence units peptide concentrations in picomolar 24H 50 [1]: 69 arbitrary fluorescence units; Geometric mean IFN-γ in arbitrary fluorescence units peptide concentrations in picomolar 48H 50 [1]: 66 arbitrary fluorescence units
5 | [PHG][CpALA]YDFFVWL | 1 | 71 arbitrary fluorescence units | 12 | 30 | 221 arbitrary fluorescence units | 0 | 70 arbitrary fluorescence units | 6 | 34 | 183 arbitrary fluorescence units | 77 | 75 |  | Geometric mean IFN-γ in arbitrary fluorescence units peptide concentrations in picomolar 24H 50 [1]: 87 arbitrary fluorescence units
6 | [am-phg][2-AOC]YDFFVW[ALG] | 0 | 98 arbitrary fluorescence units | 1 | 7 | 79 arbitrary fluorescence units | 0 | 76 arbitrary fluorescence units | 0 | 4 | 71 arbitrary fluorescence units | 73 | 73 |  | Geometric mean IFN-γ in arbitrary fluorescence units peptide concentrations in picomolar 24H 50 [1]: 69 arbitrary fluorescence units; Geometric mean IFN-γ in arbitrary fluorescence units peptide concentrations in picomolar 48H 50 [1]: 80 arbitrary fluorescence units
7 | [am-phg][2-AOC]YDFFVWL | 0 | 78 arbitrary fluorescence units | 12 | 31 | 215 arbitrary fluorescence units | 0 | 88 arbitrary fluorescence units | 1 | 30 | 143 arbitrary fluorescence units | 94 | 87 |  | Geometric mean IFN-γ in arbitrary fluorescence units peptide concentrations in picomolar 24H 50 [1]: 82 arbitrary fluorescence units; Geometric mean IFN-γ in arbitrary fluorescence units peptide concentrations in picomolar 48H 50 [1]: 70 arbitrary fluorescence units
8 | [3-PYRA]MYSDFHFI |  |  |  |  |  |  |  |  |  |  |  |  |  | % inhibition at T=4H and T=24H FP 4H [2]: 79%; % inhibition at T=4H and T=24H FP 24H [2]: 76%
9 | [CSME][2-AOC]AGIGILTV |  |  |  |  |  |  |  |  |  |  |  |  |  | % CD8+ T cells producing IFN-γ 0H ([3]; peptide 0.5 pM): 0%; Geometric mean IFN-γ in arbitrary fluorescence units 0H ([3]; peptide 0.5 pM): 101 arbitrary fluorescence units; % CD8+ T cells producing IFN-γ 2H ([3]; peptide 0.5 pM): 27%; Geometric mean IFN-γ in arbitrary fluorescence units 2H ([3]; peptide 0.5 pM): 219 arbitrary fluorescence units; % CD8+ T cells producing IFN-γ 4H ([3]; peptide 0.5 pM): 29%; Geometric mean IFN-γ in arbitrary fluorescence units 4H ([3]; peptide 0.5 pM): 368 arbitrary fluorescence units; % CD8+ T cells producing IFN-γ 24H ([3]; peptide 0.5 pM): 18%; Geometric mean IFN-γ in arbitrary fluorescence units 24H ([3]; peptide 0.5 pM): 167 arbitrary fluorescence units; % CD8+ T cells producing IFN-γ 48H ([3]; peptide 0.5 pM): 7%; Geometric mean IFN-γ in arbitrary fluorescence units 48H ([3]; peptide 0.5 pM): 119 arbitrary fluorescence units; % CD8+ T cells producing IFN-γ 0H ([3]; peptide 50 pM): 0%; Geometric mean IFN-γ in arbitrary fluorescence units 0H ([3]; peptide 50 pM): 111 arbitrary fluorescence units; % CD8+ T cells producing IFN-γ 2H ([3]; peptide 50 pM): 28%; Geometric mean IFN-γ in arbitrary fluorescence units 2H ([3]; peptide 50 pM): 249 arbitrary fluorescence units; % CD8+ T cells producing IFN-γ 4H ([3]; peptide 50 pM): 31%; Geometric mean IFN-γ in arbitrary fluorescence units 4H ([3]; peptide 50 pM): 563 arbitrary fluorescence units; % CD8+ T cells producing IFN-γ 24H ([3]; peptide 50 pM): 27%; Geometric mean IFN-γ in arbitrary fluorescence units 24H ([3]; peptide 50 pM): 397 arbitrary fluorescence units; % CD8+ T cells producing IFN-γ 48H ([3]; peptide 50 pM): 20%; Geometric mean IFN-γ in arbitrary fluorescence units 48H ([3]; peptide 50 pM): 288 arbitrary fluorescence units
10 | [PHG]AAGIGI[4-FPHE]T[NLE] |  |  |  |  |  |  |  |  |  |  | 63 | 66 | 6.8 | 
11 | [CSCF3][2-AOC]YDFFVWL |  |  |  |  |  |  |  |  |  |  |  |  |  | % inhibition at T=4H and T=24H FP 4H [2]: 91%; % inhibition at T=4H and T=24H FP 24H [2]: 79%
12 | [CSME][2-AOC]KDVEERV |  |  |  |  |  |  |  |  |  |  | 60 | 56 |  | 
13 | [am-phg]AAGIGI[4-FPHE]TV |  |  |  |  |  |  |  |  |  |  | 62 | 59 | 2.1 | 
14 | E[2-AOC]AGIGI[4FPHE]T[OM-HS] |  |  |  |  |  |  |  |  |  |  | 78 | 66 | 1.9 | 
15 | [CSME][2-AOC]AGIGILT[PRG] |  |  |  |  |  |  |  |  |  |  | 72 | 70 | 14.8 | 
16 | [PHG][NVA]AGIGILT[ALG] ({PHG-NVA}-AGIGILT-{ALG}; reading uncertain; also: printed as [PHG][NVA]AGIGILT[ALG]) |  |  |  |  |  |  |  |  |  |  | 65 | 64 | 18.9 | 
17 | [CSME]AAGIGI[4-FPHE]TV |  |  |  |  |  |  |  |  |  |  | 63 | 58 |  | 
18 | [CSME][NVA]AGIGILT[PRG] |  |  |  |  |  |  |  |  |  |  | 63 | 60 | 2.8 | 
